In the OligoGym collection:
HELM strings list units from the 5' end as sugar, base in round brackets, then linkage (d deoxyribose, r ribose, m 2'-O-methyl, p phosphodiester). Strings are as the collection lists them; they lack the last nucleoside at the 3' end of the tested compound. [moe] = 2'-O-(2-methoxyethyl) (MOE); [sp] = phosphorothioate linkage; [m5C] = 5-methylcytosine

Molecular target: ATXN2
Test: mouse, dose not given
Conditions: ASO

In order of falling 3 h FOB score:
1. RNA1{[moe](T)[sp].[moe](T)p.[moe]([m5C])p.[moe](T)p.[moe](G)p.d(T)[sp].d(A)[sp].d([m5C])[sp].d(T)[sp].d(T)[sp].d(T)[sp].d(T)[sp].d([m5C])[sp].d(T)[sp].d([m5C])[sp].[moe](A)p.[moe](T)p.[moe](G)[sp].[moe](T)}$$$$ (last 3' nucleoside missing)  4.5 score 0-7
2. RNA1{[moe](T)[sp].[moe](T)p.[moe]([m5C])p.[moe](T)[sp].[moe]([m5C])[sp].d(T)[sp].d(A)[sp].d(T)[sp].d(T)[sp].d(T)[sp].d([m5C])[sp].d(T)[sp].d(T)[sp].d(T)[sp].d(G)[sp].[moe](T)p.[moe]([m5C])p.[moe]([m5C])[sp].[moe](A)}$$$$ (last 3' nucleoside missing)  4 score 0-7
3. RNA1{[moe](T)[sp].[moe](T)p.[moe]([m5C])p.[moe](T)p.[moe]([m5C])[sp].d(T)[sp].d(A)[sp].d(T)[sp].d(T)[sp].d(T)[sp].d([m5C])[sp].d(T)[sp].d(T)[sp].d(T)[sp].d(G)[sp].[moe](T)p.[moe]([m5C])p.[moe]([m5C])[sp].[moe](A)}$$$$ (last 3' nucleoside missing)  4 score 0-7
4. RNA1{[moe](T)[sp].[moe](T)p.[moe]([m5C])p.[moe](T)p.[moe]([m5C])p.[moe](T)p.d(A)[sp].d(T)[sp].d(T)[sp].d(T)[sp].d([m5C])[sp].d(T)[sp].d(T)[sp].d(T)[sp].d(G)[sp].d(T)[sp].[moe]([m5C])p.[moe]([m5C])[sp].[moe](A)}$$$$ (last 3' nucleoside missing)  4 score 0-7
5. RNA1{[moe](T)[sp].[moe](T)p.[moe]([m5C])p.[moe](T)p.d([m5C])[sp].d(T)[sp].d(A)[sp].d(T)[sp].d(T)[sp].d(T)[sp].d([m5C])[sp].d(T)[sp].d(T)[sp].d(T)[sp].[moe](G)p.[moe](T)p.[moe]([m5C])p.[moe]([m5C])[sp].[moe](A)}$$$$ (last 3' nucleoside missing)  4 score 0-7
6. RNA1{[moe](T)[sp].[moe](T)p.[moe]([m5C])p.[moe](T)p.[moe]([m5C])p.d(T)[sp].d(A)[sp].d(T)[sp].d(T)[sp].d(T)[sp].d([m5C])[sp].d(T)[sp].d(T)[sp].d(T)[sp].d(G)[sp].[moe](T)p.[moe]([m5C])p.[moe]([m5C])[sp].[moe](A)}$$$$ (last 3' nucleoside missing)  3 score 0-7
7. RNA1{[moe](T)[sp].[moe](T)p.[moe]([m5C])p.[moe](T)p.[moe](G)[sp].d(T)[sp].d(A)[sp].d([m5C])[sp].d(T)[sp].d(T)[sp].d(T)[sp].d(T)[sp].d([m5C])[sp].[moe](T)p.[moe]([m5C])p.[moe](A)[sp].[moe](T)}$$$$ (last 3' nucleoside missing)  2.5 score 0-7
8. RNA1{[moe](T)[sp].[moe](T)p.[moe]([m5C])p.[moe](T)p.[moe](G)p.d([m5C])[sp].d(T)[sp].d(A)[sp].d(A)[sp].d([m5C])[sp].d(T)[sp].d(G)[sp].d(G)[sp].d(T)[sp].d(T)[sp].[moe](T)p.[moe](G)p.[moe]([m5C])[sp].[moe]([m5C])}$$$$ (last 3' nucleoside missing)  2 score 0-7
9. RNA1{[moe](T)[sp].[moe](T)p.[moe]([m5C])p.[moe](T)p.[moe](G)[sp].d([m5C])[sp].d(T)[sp].d(A)[sp].d(A)[sp].d([m5C])[sp].d(T)[sp].d(G)[sp].d(G)[sp].[moe](T)p.[moe](T)p.[moe](T)[sp].[moe](G)}$$$$ (last 3' nucleoside missing)  1.75 score 0-7
10. RNA1{[moe](T)[sp].[moe](T)p.[moe]([m5C])p.[moe](T)p.[moe]([m5C])[sp].d(T)[sp].d(A)[sp].d(T)[sp].d(T)[sp].d(T)[sp].d([m5C])[sp].d(T)[sp].d(T)[sp].[moe](T)p.[moe](G)p.[moe](T)[sp].[moe]([m5C])}$$$$ (last 3' nucleoside missing)  1 score 0-7
